Test results reported in publication PMC7156724, “Potent BRD4 inhibitor suppresses cancer cell-macrophage interaction” (Nature Communications, 2020).
“And” between values parts separate entries of the source, which are not always exact repeats. Equal values may be shown once.

Assays:
A2780 cells = assay: Clonogenic (colony formation) assay, A2780; assay type: cell-based, human; conditions: A2780, 250 nM, 5 days
Protocol: (§1) Fig. 2 NHWD-870 inhibited BRD4 phosphorylation and c-MYC expression, and suppressed cell growth. a Representative western blot analysis of p-BRD4 (s484/488), BRD4, c-MYC, and GAPDH after treatment of MDA-MB231, SUM159, A2780 ES-2, and H526 cells with JQ-1 or NHWD-870 at the indicated concentrations for 24 h. GAPDH served as the loading control. Selected from three independent experiments. b MTT assays of H526, A2780, ES-2, and MDA-MB231 cells treated with JQ-1 or NHWD-870 at the indicated concentrations for 5 days. Data are presented as mean ± SEM from three independent experiments. c, d Clonogenic assays of H526, A2780, ES-2 and MDA-MB231 cells treated with 250 nM JQ-1 or NHWD-870 for 5 days. Shown are representative images (c) and quantification of colonies (d). […] Shown are representative images (e) and quantification of relative colony sizes (f). Scale bar, 50 μm. Data are presented as mean ± SEM from five independent experiments. p values were calculated using two-tailed, unpaired t tests in this figure. **p < 0.01; ***p < 0.001. Source data are provided as a Source Data file. […]
(§2) 5. Colony formation assay. Cells were seeded in 6-well plates at 3,000 cells/well […]
(§3) every week. […] Colony numbers were calculated with imageJ version

[1] = tested on: NCI-H211 small cell lung cancer (SCLC) cells; assay: AlamarBlue assay, NCI-H211; assay type: cell-based; conditions: for Cellular activity in SCLCs (H211), alamarBlue: Fig.1e, replicates
Protocol: (§4) 3. AlamarBlue assay. AlamarBlue was made by resazurin sodium salt (Sigma, Cat
(§5) # 199303) dissolved in PBS.
(§6) NCI-H211, MDA-MB231 and A375 cells were plated in 96-well plates at approximately 30% confluence and left overnight to adhere. In the following day, […]
(§7) of treatment, 10 μl AlamarBlue reagent (0.3 mg/ml) was added to each well, and after 18h, the florescence intensity in each well was measured using a top-reading fluorescent plate reader with excitation at 530 nm and emission at 590 nm. […]

ES-2 cells = assay: Clonogenic (colony formation) assay, ES-2; assay type: cell-based, human; conditions: ES-2, 250 nM, 5 days
Protocol: as §1, §2, §3

[2] = tested on: MDA-MB231 triple negative breast cancer (TNBC) cells; assay: AlamarBlue assay, MDA-MB231; assay type: cell-based, human; conditions: for Cellular activity in TNBCs (MDA-MB231), alamarBlue: Fig.1f, replicates
Protocol: as §4, §5, §6, §7

[3] = tested on: phosphorylated BRD4 and c-MYC; assay: Western blot of p-BRD4, BRD4 and c-MYC in solid tumor cell lines; assay type: cell-based, human; conditions: 50 nM, 24 h
Protocol: as §1
4. Protein extraction and w estern blot anal ysis. Freshly dissected unfixed tissue was homogenized in lysis buffer. The lysates were centrifuged at 13,000g for 10 minutes at 4°C. Supernatants were collected and determined with a Bradford Protein Assay kit (Bio-Rad, Hercules, CA). The cell lysates were subjected to SDS-PAGE followed by immunoblotting (Immobilon P; Millipore, Milford, MA) with specific antibodies followed by detection using an enhanced chemilumine scence kit (Amersham Life Science, Arlington Heights, IL). […]

MDA-MB231 cells = assay: Clonogenic (colony formation) assay, MDA-MB231; assay type: cell-based, human; conditions: MDA-MB231, 250 nM, 5 days
Protocol: as §1, §2, §3

H526 cells = assay: Clonogenic (colony formation) assay, H526; assay type: cell-based, human; conditions: H526, 250 nM, 5 days
Protocol: as §1, §2, §3

[4] = tested on: BRD4 binding to the HIF1α promoter; parameters: method as in PMID 30224758, PMID 29054992; conditions: MDA-MB 231 cells ref 45, 46; cited from earlier work

With Cc1sc2c(c1C)C(c1ccc(Cl)cc1)=N[C@@H](CC(=O)OC(C)(C)C)c1nnc(C)n1-2 [JQ1, reference compound] the “Clone Number (clonogenic assay)” value (A2780 cells) was 839 and 794 and 803 and 802 and 753, the IC50 ([1]; 72 h treatment, nM, read-out: IC50, cellular activity in NCI-H211 (alamarBlue)) was 102 nM and the “Cellular activity in SCLCs (H211), alamarBlue” value (shortened to “Cellular activity in SCLCs”) ([1]; concentration 0.0169701) was 8.89 and 26.86. For the same molecule, the “Cellular activity in SCLCs” value ([1]; concentration 0.0398488) was 1.52 and 21.49, the “Cellular activity in SCLCs” value ([1]; concentration 0.137272) was 0.75 and 21.87 and the “Cellular activity in SCLCs” value ([1]; concentration 0.614394) was 3.74 and 1.29. For the same molecule, the “Cellular activity in SCLCs” value ([1]; concentration 1.09152) was 4.01 and 4.44, the “Cellular activity in SCLCs” value ([1]; concentration 1.56864) was 8.74 and 4.85 and the “Cellular activity in SCLCs” value ([1]; concentration 2.04576) was 60.7 and 49.9. For the same molecule, the “Cellular activity in SCLCs” value ([1]; concentration 3) was 94.26 and 94.75, the “Cellular activity in SCLCs” value ([1]; concentration column prints 2.52288) was 94.02 and 94.2 and the “Clone Number (clonogenic assay)” value (ES-2 cells) was 575 and 505 and 619 and 501 and 621. The IC50 ([2]; 72 h treatment, nM, read-out: IC50, cellular activity in MDA-MB231 (alamarBlue)) was 65 nM, the “Cellular activity in TNBCs (MDA-MB231), alamarBlue” value (from here on “Cellular activity in TNBCs”) ([2]; concentration 0.15) was 0.75 and 21.87 and the “Cellular activity in TNBCs” value ([2]; concentration 0.6) was 3.74 and 1.29. The “Cellular activity in TNBCs” value ([2]; concentration 1) was 19.01 and 19.44, the “Cellular activity in TNBCs” value ([2]; concentration 1.5) was 38.74 and 34.85 and the “Cellular activity in TNBCs” value ([2]; concentration 2) was 60.7 and 49.9. The “Cellular activity in TNBCs” value ([2]; concentration 2.5) was 94.02 and 94.2, the “Cellular activity in TNBCs” value ([2]; concentration 3) was 94.26 and 94.75 and the “Cellular activity in TNBCs” value ([2]; concentration -0.3) was 1.52 and 21.49. For the same molecule, the “Cellular activity in TNBCs” value ([2]; concentration -0.9) was 8.89 and 26.86, the “effect on phosphorylated BRD4 and c-MYC (western blot)” value [3] was “no effect” and the “Clone Number (clonogenic assay)” value (MDA-MB231 cells) was 1294 and 1205 and 1074 and 1155 and 1020. For the same molecule, the “Clone Number (clonogenic assay)” value (H526 cells) was 627 and 705 and 686 and 632 and 603 and the “BRD4 binding to the HIF1α promoter (ChIP-seq)” value [4] was “reduced BRD4 binding to the HIF1α promoter”.
